Experimental data as given in article PMC3480388 (PLoS ONE, 2012).
Substitutions are numbered along the chain they refer to. Like-named read-outs stand apart in the source and are kept apart here. One block for each molecule: values may come before it.

What was measured:
[1] = biological target: T1, rP2X2 K308C mutant receptor (Rattus norvegicus, UniProt P49653, K308C); experiment: Two-electrode voltage clamp of Xenopus oocytes expressing K308C mutant rP2X2; format: cell-based; conditions: for restoration of ability to respond to ATP after test compound: test compound 1 mM, 15 minutes, then 1,000 µM ATP
T1 construct: expressed in transfected cells; host or cells: Xenopus laevis oocytes (RNA injection)
T1 sequence (P49653 1-472 K308C): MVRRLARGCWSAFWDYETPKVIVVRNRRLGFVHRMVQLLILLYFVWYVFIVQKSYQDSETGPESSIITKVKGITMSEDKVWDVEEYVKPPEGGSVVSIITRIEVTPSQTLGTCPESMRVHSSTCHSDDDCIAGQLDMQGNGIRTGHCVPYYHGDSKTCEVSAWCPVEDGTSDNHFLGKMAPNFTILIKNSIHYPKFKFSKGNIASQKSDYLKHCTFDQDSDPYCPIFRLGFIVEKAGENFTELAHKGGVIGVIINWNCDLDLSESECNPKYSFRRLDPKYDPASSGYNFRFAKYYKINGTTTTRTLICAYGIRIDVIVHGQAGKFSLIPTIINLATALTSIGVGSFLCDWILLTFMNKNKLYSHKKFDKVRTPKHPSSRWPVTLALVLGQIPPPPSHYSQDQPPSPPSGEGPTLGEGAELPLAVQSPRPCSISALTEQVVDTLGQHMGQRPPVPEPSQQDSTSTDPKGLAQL

wild type rP2X2 [2] = biological target: T2, wild type rP2X2 (Rattus norvegicus, UniProt P49653); conditions: cited from earlier work
T2 construct: expressed in transfected cells; host or cells: Xenopus laevis oocytes (RNA injection)
T2 sequence (P49653 1-472): T1 sequence (P49653 1-472 K308C) with C308K

wild type rP2X2 [3] = biological target: T2, wild type rP2X2; experiment: Two-electrode voltage clamp of Xenopus oocytes expressing wild type rP2X2; format: cell-based
[4] = biological target: T3, rP2X2 K69C/H319K double mutant (Rattus norvegicus, UniProt P49653, H319K/K69C); experiment: Two-electrode voltage clamp of Xenopus oocytes expressing K69C/H319K double mutant rP2X2; format: cell-based
T3 construct: expressed in transfected cells; host or cells: Xenopus laevis oocytes (RNA injection)
T3 sequence (P49653 1-472 K69C/H319K): T1 sequence (P49653 1-472 K308C) with K69C, C308K, H319K

[5] = biological target: T4, rP2X2 K69C mutant receptor (Rattus norvegicus, UniProt P49653, K69C); experiment: Two-electrode voltage clamp of Xenopus oocytes expressing K69C mutant rP2X2; format: cell-based; conditions: for restoration of ability to respond to ATP after test compound: test compound 1 mM, 1 minute, then 1,000 µM ATP; for amplitude of response to 100 µM zinc: K69C after AM546 then MTSEA, N = 6; for Response after challenge compound (nA) 100 µM Zn / Response after challenge compound (nA) 1,000 µM ATP / Response after challenge compound (nA) pH 6.5: test compound 50 µM, 5 minutes; for binding to and activation of K69C receptors: tested for responses to zinc, pH 6.5 and ATP, then challenge with AM546 or MTSEA
T4 construct: expressed in transfected cells; host or cells: Xenopus laevis oocytes (RNA injection)
T4 sequence (P49653 1-472 K69C): T1 sequence (P49653 1-472 K308C) with K69C, C308K

[6] = test system: P2X1 mutant homologous to K69A; conditions: ref [28]; cited from earlier work
uninjected oocytes = experiment: Two-electrode voltage clamp of uninjected oocytes (control); format: cell-based, Xenopus laevis; conditions: N = 14
Protocol: This study was carried out in strict accordance with the recommendations in the Guide for the Care and Use of Laboratory Animals of the National Institutes of Health. The protocol was approved by the University Committee on the Use and Care of Animals of the University of Michigan (Protocol 08396-4). The rP2X2 receptors were expressed in defolliculated stage V-VI Xenopus laevis oocytes. Oocytes were harvested using procedures that have been described in detail previously.
RNAs encoding wild type and mutant rP2X2 receptors were synthesized using the mMessage mMachine T7 kit (Life Technologies, Grand Island, NY). Each oocyte was injected with 50 nl of RNA (10–20 ng/µl). Two-electrode voltage clamp experiments were performed 2–5 days after RNA injection. Except where indicated otherwise, recordings were made at a holding potential of −50 mV. Recording electrodes were pulled from thin walled borosilicate glass and had resistances of 0.2–1 MΩ. Currents were recorded with a Turbo TEC-03 or TEC-10 voltage clamp amplifier (npi electronic GmBH, Tamm, Germany). Data acquisition was performed using a Digidata 1322A interface controlled by pCLAMP 9 or 10 (Molecular Devices, Sunnyvale, CA).
To regulate the delivery of most test solutions into the recording chamber, we used a gravity fed valve array. […]

[7] = AM546-treated K69C, no exogenous ATP

Molecule: Nc1ncnc2c1ncn2C1OC(COP(=O)(O)OP(=O)(O)OP(=O)(O)O)C(O)C1O (stereo not drawn) [ATP, Disodium ATP]
- EC50 ([1]; MTSEA-modified K308C): 374 ± 35 µM
- Hill coefficient (ATP) ([1]; MTSEA-modified K308C): 1.3±0.1
- Hill Coefficient (typical value for wild type rP2X2) (wild type rP2X2 [2]; typical value used to estimate basal ATP levels, ref not given): 1.5
- inward current (wild type rP2X2 [3]; 1,000 µM ATP, same RNA concentration as K69C, 'over' refers to magnitude): over −20 µA
- EC50 (wild type rP2X2 [3]; wild type rP2X2): 32 ± 1 µM
- EC50 [4]: ~145 µM
- ATP response ([5]; AM546-modified K69C, 1,000 µM ATP, 'greater than' refers to magnitude): greater than −100 nA
- EC50 ([5]; MTSEA-modified K69C): 924 ± 102 µM
- Hill coefficient (ATP) ([5]; MTSEA-modified K69C): 1.4±0.1

Molecule: CSS(C)(=O)=O [MMTS, Methyl Methanethiosulfonate]
- restoration of ability to respond to ATP after test compound [1]: None of these compounds restored the ability
- restoration of ability to respond to ATP after test compound [5]: None of these compounds restored the ability

Molecule: C[N+](C)(C)CCSS(C)(=O)=O.[Cl-] [MTSET, [2-(Trimethylammonium)ethyl] Methanethiosulfonate Chloride]
- restoration of ability to respond to ATP after test compound [1]: None of these compounds restored the ability
- restoration of ability to respond to ATP after test compound [5]: None of these compounds restored the ability

Molecule: Cc1ccc(C(=O)Nc2ccc(S(=O)(=O)O)c3cc(S(=O)(=O)O)cc(S(=O)(=O)O)c23)cc1NC(=O)c1cccc(NC(=O)Nc2cccc(C(=O)Nc3cc(C(=O)Nc4ccc(S(=O)(=O)O)c5cc(S(=O)(=O)O)cc(S(=O)(=O)O)c45)ccc3C)c2)c1 [suramin, Suramin]
- IC50 for suramin [6]: normal
- average suramin response (uninjected oocytes): −1.3±1.9 nA
- outward suramin currents due to inhibition of basal ATP (wild type rP2X2 [3]; cells with maximal currents to saturating ATP of about −20 µA): 10–500 nA
- Hill coefficient (suramin) (wild type rP2X2 [3]; no exogenous ATP, N = 11): 1.2±0.1
- IC50 (wild type rP2X2 [3]; read-out: suramin IC50 (outward current response)): 8.3 ± 1.1 µM
- Hill coefficient (suramin activation) [5, 7]: 1.1±0.1
- maximal response to suramin (inward current) [5, 7]: −450±51 nA
- response to suramin ([5]; K69C prior to AM546 treatment, no exogenous ATP): no response
- EC50 ([5]; read-out: suramin EC50 (activation)): 52 ± 5 µM

Molecule: [Cl-].[Cl-].[Zn+2] [zinc, Zinc chloride]
- Izinc average current ([1]; untreated K308C, 100 µM zinc, N = 6): −5±4 nA
- average response to a zinc jump (uninjected oocytes; 50 µM zinc): +8.6±1.9 nA
- enhancement of the current by a zinc jump (wild type rP2X2 [2]; untreated wild type, EC10 ATP, pH 7.5, 20 µM zinc, ref [17], [20]): approximately 8 fold
- current as % of the maximum after addition of zinc (wild type rP2X2 [3]; 20 µM zinc, ATP giving 10% of maximum at pH 7.5): 80–90%
- additional inward current in response to zinc ([4]; 50 µM zinc, after AM546, 'over' refers to magnitude): over −6 µA
- current in response to zinc alone ([4]; 50 µM zinc, before AM546, no exogenous ATP, N = 12): −2.9±0.9 µA
- amplitude of response to 100 µM zinc ([5]; with 1,000 µM ATP): 2.74±0.47 µA
- amplitude of response to 100 µM zinc ([5]; without ATP): 0.39±0.06 µA

The next lines start with the values.

- Response after challenge compound (nA) 100 µM Zn ([5]; then challenge compound AM-546): −10±9 nA
- Response after challenge compound (nA) 1,000 µM ATP ([5]; then challenge compound AM-546): −10±3 nA
- Response after challenge compound (nA) pH 6.5 ([5]; then challenge compound AM-546): −16±5 nA
- binding to and activation of K69C receptors [5]: could bind to, but not activate
Molecule: Alexa Fluor 488 C5-maleimide [AM-488]

- Response after challenge compound (nA) 100 µM Zn ([5]; then challenge compound MTSEA): −9±4 nA
- Response after challenge compound (nA) 1,000 µM ATP ([5]; then challenge compound MTSEA): −41±9 nA
- Response after challenge compound (nA) pH 6.5 ([5]; then challenge compound MTSEA): −25±0 nA
- binding to and activation of K69C receptors [5]: could bind to, but not activate
Molecule: Alexa Fluor 568 C5-maleimide [AM-568]

- Response after challenge compound (nA) 100 µM Zn ([5]; then challenge compound MTSEA): −2±1 nA
- Response after challenge compound (nA) 1,000 µM ATP ([5]; then challenge compound MTSEA): −26±7 nA
- Response after challenge compound (nA) pH 6.5 ([5]; then challenge compound MTSEA): −7±5 nA
- binding to and activation of K69C receptors [5]: could bind to, but not activate
Molecule: Alexa Fluor 594 C5-maleimide [AM-594]
